Experimental data: patent US10988444B2, “Antimicrobial compounds” (NEWSOUTH INNOVATIONS PTY LIMITED, priority 2016, dated 2021)
Like-named read-outs stand apart in the source and are kept apart here.

Key:
[1] = tested on: S. aureus (SA38); details: Literature value; cited from earlier work
[2] = tested on: E. coli; assay: Biofilm disruption assay, established biofilms, crystal violet staining; format: cell-based; details: 250 μM, 24 h treatment
Procedure: (§1) Bacterial cultures were grown in TSB media for overnight at 37° C. with shaking at 150 r.p.m. Cultures were diluted (1:20) in YPD medium and 200 μl aliquots were dispensed to flat bottom 96-well plate wells (Sarstedt Australia). Cultures were supplemented with varying concentrations of synthetic compounds dissolved in water. For pre-established biofilm assay, cultures were grown in 96-well plate wells overnight prior to supplementation with synthetic compounds. Control cultures were supplemented with an equal amount of DMSO. Plates were sealed with self-adhesive microplate sealers (TopSeal-A, PerkinElmer) to allow air diffusion and to prevent condensation. Cultures were incubated overnight at 37° C. with shaking at 150 r.p.m. Biofilms adhered on polystyrene substratum were quantified by crystal violet staining as described previously (see Wiegand, I.; Hilpert, K.; Hancock, R. E. W. Nat. Protocols 2008, 3 (2), 163-175). All cultures were prepared in triplicates. Error bars represent the standard error of three independent experiments (n=3).
(§2) The biofilm disruption activities of the compounds were investigated using crystal violet staining according to a previously published protocol (G. A. O'Toole, J Vis Exp, 2011, (47), pii: 2437, DOI: 10.3791/2437, 2437). The ability of compounds (34-38, 51-56, 61, 62, 65 and 66) to disrupt the established biofilms of the Gram-positive bacteria S. aureus and the Gram-negative bacteria Pseudomonas aeruginosa, Serratia marcescens and E. coli, was determined at a concentration of 250 μM. In this assay, bacterial cultures were grown on a polystyrene substratum overnight prior to treatment with the compounds. In addition, the ability of these compounds to inhibit the formation of biofilms of P. aeruginosa and S. marcescens was also investigated at 250 μM, whereby the bacterial cultures were grown in the presence of test compounds.

[3] = tested on: S. aureus; assay: as above; format: cell-based; details: 250 μM, 24 h treatment
Procedure: as §1, §2

[4] = tested on: Pseudomonas aeruginosa (PAO1); assay: as above; format: cell-based; details: 250 μM, 24 h treatment
Procedure: as §1, §2

[5] = tested on: E. coli; assay: Minimal inhibitory concentration (MIC) determination, Example 1; format: cell-based; details: Escherichia coli, 24 h, MHB, 37° C., read-out: Minimum inhibitory concentration (MIC) E. coli
Procedure: (§3) The antibacterial activity of the compounds was determined by the determination of minimal inhibitory concentration (MIC) by following the previously published protocol (see Nizalapur, S.; Ho, K. K.; Kimyon, Ö.; Yee, E.; Berry, T.; Manefield, M.; Cranfield, C. G.; Willcox, M.; Black, D. S.; Kumar, N. Org. Biomol. Chem. 2016, 14, 3623). The compounds to be tested were dissolved and diluted in autoclaved Millipore water. A single colony of bacteria was cultured overnight in TSB at 37° C. The resulting bacteria were collected by centrifugation and re-suspended in the same volume of MHB twice. Optical density (OD) of the resulting culture was adjusted to 0.1 at 600 nm (10^8 CFU/mL) in MHB, and the adjusted culture was further diluted to […] in MHB. Then, 100 μL of the bacterial solution was added to wells of a 96-well plate containing 100 μL of serially diluted compound. Two controls were also prepared: one containing 100 μL of MHB media and 100 μL sterile water, and the other containing 100 μL of bacterial solution and 100 μL sterile water. […] The MIC value was determined as the lowest concentration of compound that inhibited the complete growth of the bacteria (i.e. OD similar to that of the control having no bacteria). Each experiment was performed in triplicate and was repeated in three independent experiments.
(§4) The results of the MIC assay are given below in Table 1.

[6] = tested on: S. aureus; assay: as above; format: cell-based; details: Staphylococcus aureus
Procedure: as §3, §4

[7] = tested on: S. marcescens; assay: Biofilm disruption assay, established biofilms, crystal violet staining; format: cell-based, Serratia marcescens; details: 250 μM, 24 h treatment
Procedure: as §1, §2

[8] = tested on: S. aureus biofilms; assay: Confocal microscopy of established biofilms, Live/dead stain; format: cell-based; details: 250 μM
[9] = tested on: S. marcescens biofilms; assay: Confocal microscopy of non-established biofilms, Live/dead stain; format: cell-based, Serratia marcescens; details: 250 μM
Procedure: S. aureus and Serratia marcescens biofilms were grown by adding 1.5 ml of bacterial cells (OD600 nm˜0.600) suspended in fresh TSB medium into 35×10 mm polystyrene petri dishes and incubated over 24 h at 37° C. in a shaking incubator at 120 r.p.m. Cultures were supplemented with varying concentrations of synthetic compounds dissolved in water. Control cultures were supplemented with an equal amount of water. After 24 h, the biofilm growth medium was discarded and the biofilms were gently rinsed 3 times with PBS (pH: 7.0) in order to remove any planktonic bacterial cells. The remaining substratum adhered biofilms were then stained with Live/dead stain (Invitrogen, Oregon, USA) for 20 mins in the dark and then subjected to confocal microscopy. Stained biofilms were visualized with FV 1200 Confocal microscope.

[10] = tested on: MRC-5 normal human lung fibroblasts; assay: Toxicity assay, Alamar blue, Example 1; format: cell-based; details: 72 h incubation
Procedure: The normal human lung fibroblasts MRC-5 were cultured in minimal essential medium (MEM, Invitrogen) supplemented with 10% foetal calf serum (FCS), 1% L-glutamine-penicillin-streptomycin, 2% sodium bicarbonate, 1% non-essential amino acids (NEAA) and 1% sodium pyruvate. The cell line was maintained at 37° C. in 5% CO2 as an adherent monolayer and was passaged upon reaching confluence by standard cell culture techniques. MRC-5 cells were seeded at 2×10^4 cells per well in 96-well plates to ensure full confluence (quiescence). Cells were treated 24 h after seeding with 0.1 to 1000 μM of compounds. After 72 h drug incubation, the treated media was replaced with fresh media containing 10% Alamar blue and the cells were incubated for another 6 h. The metabolic activity was detected by spectrophotometric analysis by assessing the absorbance of Alamar blue as previously described by Pasquier et. al (see Pasquier, E.; Ciccolini, J.; Carre, M.; Giacometti, S.; Fanciullino, R.; Pouchy, C.; Montero, M.-P.; Serdjebi, C.; Kavallaris, M.; André, N. Oncotarget 2011, 2, 797).
Cell proliferation was determined and expressed as a percentage of untreated control cells. The determination of IC50 values was performed using GraphPad Prism 6 (San Diego, Calif., USA).
To further evaluate the utility of these novel guanylated peptidomimetics for medical applications, it was essential to determine their specificity towards bacterial cells over mammalian cells.

[11] = tested on: Pseudomonas aeruginosa (PAO1); assay: Biofilm inhibition assay (inhibition of biofilm formation), crystal violet staining; format: cell-based; details: 24 h, read-out: inhibition of biofilm formation by P. aeruginosa
Procedure: as §1, with “no-established” for “pre-established”, “along” for “prior to supplementation”, “water.” for “DMSO.”
as §2

[12] = MHB, 37° C., 24 h, read-out: Minimum inhibitory concentration (MIC) S. aureus

| Molecule | MIC [1] [µM] | disruption of established biofilms of E. coli [2] [%] | disruption of established biofilms of S. aureus [3] [%] | disruption of established biofilms of P. aeruginosa [4] [%] | MIC [5] [µg/mL] | MIC [6, 12] [µg/mL] | disruption of established biofilms of S. marcescens [7] [%] | confocal microscopy, effect on pre-established S. aureus biofilm [8] | confocal microscopy, effect on S. marcescens biofilm formation [9] | MIC ([6]; MIC in μM as compared with MRC-5 IC50, read-out: equivalent MIC values) [µM] | toxicity (IC50) against MRC-5 human fibroblast cells [10] | inhibition at 250 µM [11] [%] |
| --- | --- | --- | --- | --- | --- | --- | --- | --- | --- | --- | --- | --- |
| MSI-78 | 13 | – | – | – | – | – | – | – | – | – | – | – |
| COC(=O)C(CCCN)NC(=O)C(CCCCN)NC(=O)C(=O)c1cc(Br)ccc1NC(=O)c1ccc2ccccc2c1.Cl.Cl (stereo not drawn) [Compound 62, Methyl 2-(2-(2-(2-(2-naphthamido)-5-bromophenyl)-2-oxoacetamido)-6-aminohexanamido)-5-aminopentanoate dihydrochloride] | – | 42 | 61 | 46 | 21 | 23 | 49 | disrupted the pre-established biofilm significantly | – | – | – | – |
| COC(=O)[C@H](CCCNC(=N)N)NC(=O)[C@H](CCCNC(=N)N)NC(=O)C(=O)c1ccccc1NC(=O)c1ccc2ccccc2c1.Cl.Cl [Compound 65, Methyl (2-(2-(2-naphthamido)phenyl)-2-oxoacetyl)arginylargininate dihydrochloride] | – | – | – | – | 90 | 18 | 60 | – | inhibited biofilm formation | 31 | not reaching a 50% reduction of cell viability at the highest tested dose | 65 |
